From patent US20080004272A1, “Compositions and methods for modulating gated ion channels” (PainCeptor Pharma Corporation, priority 2006, published 2008)

target: T1, ASIC1a (Homo sapiens, UniProt P78348); experiment: Calcium imaging of MES-induced calcium response (FLIPR); type: cell-based; set-up: host or cells: HEK293; settings: ASIC1a expressing HEK293 cells, MES-induced calcium response; read-out: IC50 (FLIPR)
T1 sequence (P78348 1-528): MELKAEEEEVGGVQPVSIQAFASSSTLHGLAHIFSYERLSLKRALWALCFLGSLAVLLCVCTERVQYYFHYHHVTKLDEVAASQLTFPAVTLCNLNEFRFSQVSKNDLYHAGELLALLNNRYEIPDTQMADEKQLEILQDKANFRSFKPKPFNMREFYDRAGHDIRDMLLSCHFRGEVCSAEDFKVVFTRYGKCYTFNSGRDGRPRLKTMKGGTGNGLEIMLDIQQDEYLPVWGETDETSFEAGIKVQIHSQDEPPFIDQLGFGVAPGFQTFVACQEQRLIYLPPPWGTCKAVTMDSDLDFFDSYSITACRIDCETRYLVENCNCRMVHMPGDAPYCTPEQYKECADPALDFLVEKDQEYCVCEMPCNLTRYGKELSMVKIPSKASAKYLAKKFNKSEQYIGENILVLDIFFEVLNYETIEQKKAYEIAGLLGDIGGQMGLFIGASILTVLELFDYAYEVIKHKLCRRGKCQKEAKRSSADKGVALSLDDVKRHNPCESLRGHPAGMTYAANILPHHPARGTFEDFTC
Procedure: […] Confluency of cells should be 80-90% on day of plating. Cells are rinsed with 10 ml of PBS and cells are re-suspended by addition of culture medium and trituration with a 25 ml pipette.
The cells are seeded at a density of approximately 1×10^6 cells/ml (100 μl/well) in black-walled, clear bottom, 96-well plates pre-treated with 10 mg/l poly-D-lysin (75 μl/well for ≧30 min). Plated cells are allowed to proliferate for 24 h before loading with dye.
Fluo-4/AM (1 mg, Molecular Probes) is dissolved in 912 μl DMSO. The Fluo-4/AM stock solution (1 mM) is diluted with culture medium to a final concentration of 2 μM (loading solution).
The culture medium is aspirated from the wells, and 50 μl of the Fluo-4/AM loading solution is added to each well. The cells are incubated at 37° C. for 30 min.
Following the second wash, 100 μl modified Assay Buffer is added to each well and the fluorescence is measured in FLIPR™ or FlexStation™ (Molecular Devices, USA), or any other suitable equipment known to the skilled in the art.
Temperature: Room temperature (20-22° C.)
First addition: 50 μl test solution at a rate of 30 μl/sec and a starting height of […]
Second addition: 50 μl MES solution (20 mM, 5 mM final concentration) at a rate of 35 μl/sec and a starting height of 150 μl.
Reading intervals: pre-incubation−10 sec×7 and 3 sec×3 antagonist phase−3 sec×7 and 10 sec×12
Addition plates (compound test plate and MES plate) are placed on the right and left positions in the FLIPR tray, respectively. Cell plates are placed in the middle position and the ASIC1a program is effectuated. FLIPR will then take the appropriate measurements in accordance with the interval settings above. Fluorescence obtained after stimulation is corrected for the mean basal fluorescence (in modified Assay Buffer).
The MES-induced peak calcium response, in the presence of test substance, is expressed relatively to the MES response alone. Test substances that block the MES-induced calcium response are re-tested in triplicates.

`CCOC(=O)c1ccc(-c2cc3c(c4c2CCN(C)C4)NC(=O)C3=NO)cc1` [Compound 1, 4-(3-hydroxyimino-8-methyl-2-oxo-2,3,6,7,8,9-hexahydro-1H-pyrrolo[3,2-h]isoquinolin-5-yl)-benzoic acid ethyl ester] and `CN1CCc2c(-c3ccc(C(=O)N(C)C)cc3)cc3c(c2C1)NC(=O)C3=NO` [Compound 3, 4-(3-Hydroxyimino-8-methyl-2-oxo-2,3,6,7,8,9-hexahydro-1H-pyrrolo[3,2-h]isoquinolin-5-yl)-N,N-dimethyl-benzamide] cannot be ordered by IC50: over 70 µM for the first, over 70 µM for the second.

First: CN1CCc2c(-c3ccc(S(=O)(=O)N4CCOCC4)cc3)cc3c(c2C1)NC(=O)C3=NO [Compound 2, 8-methyl-5-[4-(morpholine-4-sulfonyl)-phenyl]-6,7,8,9-tetrahydro-1H-pyrrolo[3,2-h]isoquinoline-2,3-dione 3-oxime]
Second: CN1CCc2c(-c3ccc(S(=O)(=O)N4CCCCC4)cc3)cc3c(c2C1)NC(=O)C3=NO [Compound 5, 8-Methyl-5-[4-(piperidine-1-sulfonyl)-phenyl]-6,7,8,9-tetrahydro-1H-pyrrolo[3,2-h]isoquinoline-2,3-dione 3-oxime]
The IC50 of the first is higher: over 70 µM for the first, under 25 µM for the second.

`CN1CCc2c(-c3ccc(S(=O)(=O)N4CCN(CCO)CC4)cc3)cc3c(c2C1)NC(=O)C3=NO` [Compound 4, 5-{4-[4-(2-Hydroxy-ethyl)-piperazine-1-sulfonyl]-phenyl}-8-methyl-6,7,8,9-tetrahydro-1H-pyrrolo[3,2-h]isoquinoline-2,3-dione 3-oxime] and `CS(=O)(=O)N1CCc2c(-c3ccc(Cl)cc3)cc3c(c2C1)NC(=O)C3=NO` [Compound 71, 5-(4-Chloro-phenyl)-8-methanesulfonyl-6,7,8,9-tetrahydro-1H-pyrrolo[3,2-h]isoquinoline-2,3-dione 3-oxime] cannot be ordered by IC50: over 70 µM for the first, over 70 µM for the second.

`CN1CCc2c(-c3ccc(F)c(Cl)c3)cc3c(c2C1)NC(=O)/C3=N\O` [Compound 14] and `Cc1cc(-c2cc3c(c4c2CCN(C)C4)NC(=O)/C3=N/O)ccc1F` [Compound 15] cannot be ordered by IC50: under 10 µM for the first, under 10 µM for the second.

`CN1CCc2c(-c3ccc(F)c(F)c3)cc3c(c2C1)NC(=O)/C3=N\O` [Compound 16] and `CN1CCc2c(-c3cc(F)ccc3F)cc3c(c2C1)NC(=O)/C3=N/O` [Compound 39] cannot be ordered by IC50: under 10 µM for the first, under 10 µM for the second.

`CN1CCc2c(-c3cc(F)cc(F)c3)cc3c(c2C1)NC(=O)/C3=N\O` [Compound 17] and `CN1CCc2c(-c3cccc(F)c3)cc3c(c2C1)NC(=O)/C3=N\O` [Compound 36] cannot be ordered by IC50: under 10 µM for the first, under 10 µM for the second.

First: CN1CCc2c(-c3ccccc3C(F)(F)F)cc3c(c2C1)NC(=O)/C3=N/O [Compound 18]
Second: CN1CCc2c(-c3ccccc3OC(F)(F)F)cc3c(c2C1)NC(=O)/C3=N/O [Compound 53]
The IC50 of the first is lower: under 20 µM for the first, over 70 µM for the second.

First: CN1CCc2c(-c3ccccc3F)cc3c(c2C1)NC(=O)/C3=N/O [Compound 19]
Second: CN1CCc2c(-c3ccccc3Cl)cc3c(c2C1)NC(=O)/C3=N/O [Compound 22]
The IC50 of the first is lower: under 10 µM for the first, 35 to 45 µM for the second. The first is the more potent here.

First: CO/N=C1/C(=O)Nc2c1cc(-c1ccccc1OC)c1c2CN(C)CC1 [Compound 21]
Second: COc1ccccc1-c1cc2c(c3c1CCN(C)C3)NC(=O)/C2=N\O [Compound 34]
The IC50 of the first is higher: 20 to 30 µM for the first, under 10 µM for the second. The second is the more potent here.

Compared with `CN1CCc2c(-c3cc(C(F)(F)F)cc(C(F)(F)F)c3)cc3c(c2C1)NC(=O)/C3=N\O` [Compound 23], `CN1CCc2c(-c3cccc(C(F)(F)F)c3)cc3c(c2C1)NC(=O)/C3=N/O` [Compound 49] is higher in IC50: 40 to 60 µM for the first, over 70 µM for the second. The first is the more potent here.

First: CCOc1cccc(-c2cc3c(c4c2CCN(C)C4)NC(=O)/C3=N\O)c1 [Compound 25]
Second: COc1cccc(-c2cc3c(c4c2CCN(C)C4)NC(=O)/C3=N\O)c1 [Compound 43]
The IC50 of the first is higher: 40 to 60 µM for the first, under 10 µM for the second.

`CC(=O)c1ccc(-c2cc3c(c4c2CCN(C)C4)NC(=O)/C3=N/O)s1` [Compound 26] and `CC(=O)c1ccccc1-c1cc2c(c3c1CCN(C)C3)NC(=O)/C2=N/O` [Compound 32] cannot be ordered by IC50: over 70 µM for the first, over 70 µM for the second.

`CN1CCc2c(-c3cccnc3)cc3c(c2C1)NC(=O)/C3=N/O` [Compound 27] and `CN1CCc2c(-c3ccncc3)cc3c(c2C1)NC(=O)/C3=N/O` [Compound 55] cannot be ordered by IC50: over 70 µM for the first, over 70 µM for the second.

`CN1CCc2c(-c3cccc(C#N)c3)cc3c(c2C1)NC(=O)/C3=N\O` [Compound 28] and `CN1CCc2c(-c3cccc(O)c3)cc3c(c2C1)NC(=O)/C3=N/O` [Compound 31] cannot be ordered by IC50: over 70 µM for the first, over 70 µM for the second.

Compared with `CN1CCc2c(-c3cccc([N+](=O)[O-])c3)cc3c(c2C1)NC(=O)/C3=N\O` [Compound 29], `CN1CCc2c(-c3cccc(Cl)c3)cc3c(c2C1)NC(=O)/C3=N\O` [Compound 35] is lower in IC50: over 70 µM for the first, under 10 µM for the second. The second is the more potent here.

`COc1c2c(c(C(C)=O)c3c1OCO3)CCN(C)C2` [Compound 33] and `C/C(=N\O)c1c2c(c(O)c3c1OCO3)CN(C)CC2` [Compound 57] cannot be ordered by IC50: over 70 µM for the first, over 70 µM for the second.

`CCOc1ccccc1-c1cc2c(c3c1CCN(C)C3)NC(=O)/C2=N/O` [Compound 37] and `COCCOc1ccccc1-c1cc2c(c3c1CCN(C)C3)NC(=O)/C2=N/O` [Compound 38] cannot be ordered by IC50: under 10 µM for the first, under 10 µM for the second.

`CCc1ccccc1-c1cc2c(c3c1CCN(C)C3)NC(=O)/C2=N/O` [Compound 40] and `Cc1ccccc1-c1cc2c(c3c1CCN(C)C3)NC(=O)/C2=N/O` [Compound 41] cannot be ordered by IC50: under 10 µM for the first, under 10 µM for the second.

First: COc1cc(F)ccc1-c1cc2c(c3c1CCN(C)C3)NC(=O)/C2=N/O [Compound 42]
Second: Cc1cc(F)ccc1-c1cc2c(c3c1CCN(C)C3)NC(=O)/C2=N/O [Compound 52]
The IC50 of the first is lower: under 10 µM for the first, over 70 µM for the second. The first is the more potent here.

Going from `CN1CCc2c(-c3ccccc3Oc3ccccc3)cc3c(c2C1)NC(=O)/C3=N/O` [Compound 44] to `CN1CCc2c(-c3cccc4c3oc3ccccc34)cc3c(c2C1)NC(=O)/C3=N/O` [Compound 58], the IC50 rises from under 10 µM to over 70 µM. The first is the more potent here.

`COc1ncccc1-c1cc2c(c3c1CCN(C)C3)NC(=O)/C2=N/O` [Compound 45] and `CN1CCc2c(-c3cccc(F)c3F)cc3c(c2C1)NC(=O)/C3=N/O` [Compound 68] cannot be ordered by IC50: under 10 µM for the first, under 20 µM for the second.

First: CC(C)Oc1cccc(-c2cc3c(c4c2CCN(C)C4)NC(=O)/C3=N\O)c1 [Compound 46]
Second: CN1CCc2c(-c3cccc(N)c3)cc3c(c2C1)NC(=O)/C3=N/O [Compound 48]
The IC50 of the first is lower: 40 to 60 µM for the first, over 70 µM for the second.

`CC(=O)c1cccc(-c2cc3c(c4c2CCN(C)C4)NC(=O)/C3=N/O)c1` [Compound 47] and `CN1CCc2c(-c3cccc(OC(F)(F)F)c3)cc3c(c2C1)NC(=O)/C3=N/O` [Compound 51] cannot be ordered by IC50: over 70 µM for the first, over 70 µM for the second.

`CN1CCc2c(-c3ccc(F)cc3F)cc3c(c2C1)NC(=O)/C3=N/O` [Compound 50] and `COc1c(F)cc(F)cc1-c1cc2c(c3c1CCN(C)C3)NC(=O)/C2=N/O` [Compound 60] cannot be ordered by IC50: over 70 µM for the first, over 70 µM for the second.

Compared with `CN1CCc2c(-c3ccc(OC(F)(F)F)cc3)cc3c(c2C1)NC(=O)/C3=N/O` [Compound 54], `CN1CCc2c(-c3ccoc3)cc3c(c2C1)NC(=O)/C3=N/O` [Compound 69] is lower in IC50: over 70 µM for the first, under 20 µM for the second.

`CN1CCc2c(-c3ccsc3C=O)cc3c(c2C1)NC(=O)/C3=N/O` [Compound 56] and `CC(=O)N1CCc2c(-c3ccc(Cl)cc3)cc3c(c2C1)NC(=O)C3=NO` [Compound 70, 8-Acetyl-5-(4-chloro-phenyl)-6,7,8,9-tetrahydro-1H-pyrrolo[3,2-h]isoquinoline-2,3-dione 3-oxime] cannot be ordered by IC50: over 70 µM for the first, over 70 µM for the second.

Compared with `CN1CCc2c(-c3ccccc3)cc3c(c2C1)NC(=O)/C3=N/OC1O[C@H](CO)[C@@H](O)[C@H](O)[C@H]1O` (stereo partly shown) [Compound 59], `C#CN1C(=O)C(=NO)c2cc(-c3ccccc3)c3c(c21)CN(CC)CC3` [Compound 72, 8-Ethyl-1-ethynyl-5-phenyl-6,7,8,9-tetrahydro-1H-pyrrolo[3,2-h]isoquinoline-2,3-dione 3-oxime] is lower in IC50: over 70 µM for the first, under 10 µM for the second. The second is the more potent here.

Compound `CCN1CCc2c(-c3ccccc3)cc3c(c2C1)N(CC(=O)OC)C(=O)C3=NO` [Compound 73, (8-Ethyl-3-hydroxyimino-2-oxo-5-phenyl-2,3,6,7,8,9-hexahydro-pyrrolo[3,2-h]isoquinolin-1-yl)-acetic acid methyl ester] has an IC50 of under 20 µM.
